The record followed here is patent US12565485B2, “Solid forms of 1-((S)-4-((R)-7-(6-amino-4-methyl-3-(trifluoromethyl)pyridin-2-yl)-6-chloro-8-fluoro-2-(((s)-1-methylpyrrolidin-2-yl)methoxy)quinazolin-4-yl)-3-methylpiperazin-1-yl)prop-2-en-1-one” (Genentech, Inc., priority 2022, dated 2026).

Holding throughout (format): physicochemical
One series is described as follows: Slow evaporation. The following applies: Compound A, evaporation at RT. Here is the method: Slow evaporation. Slow evaporation experiments were performed under 10 conditions. Briefly, about 15˜20 mg of freebase starting material (810935-01-A) was dissolved in 0.5˜1.0 mL of solvent in a 3-mL glass vial.
Slow evaporation Compound A. Slow evaporation experiments were performed under seven conditions.

A short description of series [1]: Heating under N2 protection (VT-XRPD), form change. The following applies: heating to 100° C. under N2 protection, cooled down and exposed to ambient conditions; listed as adipate Type A. Here is the method:
Compound B Form A was obtained from an acetone system and the sample was air dried at RT. […] (peak temperature) before the possible overlapped peak with peak temperature at 156.3° C. (FIG. 12). Based on the integrals, the stoichiometric ratio of fumaric acid:freebase was determined to be 1.03. A peak of acetone was observed and approximately 0.49 molar acetone (4.4 wt %) was detected. The HPLC purity of Compound B Form A was determined to be 93.56 area %. […] Around 0.39 molar acetone (3.5 wt %) was still detected. One endotherm at 58.7° C. and an overlapped peak with peak temperature at 157.1° C. were still observed on the sample obtained after heating. The first endotherm might be caused by re-adsorption of moisture. Since ˜3.5 wt % acetone was still detected from NMR, Compound B Form A is expected to be an acetone/H2O co-solvate. […]

The next series can be described thus: Liquid vapor diffusion. The following applies: Compound A, RT. The method, then: Liquid vapor diffusion. Liquid vapor diffusion experiments were conducted in different solvent systems. […] This solution was then placed into a 20-mL vial with 3 mL of corresponding anti-solvent. The 20-mL vial was sealed with a cap and kept at RT allowing sufficient time for organic vapor to interact with the solution. The precipitates were isolated for XRPD analysis.
Liquid vapor diffusion Compound A. Liquid vapor diffusion experiments were conducted in different solvent systems. […] This solution was then placed into a 20-mL vial with 3 mL of corresponding anti-solvent. The 20-mL vial was sealed with a cap and kept at RT allowing sufficient time for organic vapor to interact with the solution. The precipitates were isolated for XRPD analysis.

A short description of the next series: Slow cooling. The following applies: Compound A, 50° C. to 5° C. at 0.1° C./min. Here is the method:
Slow cooling Compound A. Slow cooling experiments were conducted in four solvent systems. […] The suspension was then heated to 50° C., equilibrated for about 2 hr and filtered to a new vial using a seal membrane (PTFE, pore size of 0.45 μm). Filtrates were slowly cooled down to 5° C. at a rate of 0.1° C./min. The obtained solids were kept isothermal at 5° C. before isolation for XRPD analysis.

In the case of `C=CC(=O)N1CCN(c2nc(OC[C@@H]3CCCN3C)nc3c(F)c(-c4nc(N)cc(C)c4C(F)(F)F)c(Cl)cc23)[C@@H](C)C1` [Compound A Form A], the Result result is recorded as “Gel” in “Slow evaporation” (2-MeTHF); “Gel” in the series “Slow evaporation” (Acetone); “Gel” in “Slow evaporation” (DCM); “Gel” in “Slow evaporation” (EtOH); “Clear solution” in the series “Slow evaporation” (H2O); “Gel” in “Slow evaporation” (MeOH). The Result entry in the series “Slow evaporation” (THF) was “Gel”; in “Liquid vapor diffusion” (solvent DMSO, anti-solvent EtOAc), “Clear solution”; in the series “Liquid vapor diffusion” (solvent EtOH, anti-solvent MTBE) it was “Gel”; in the series “Liquid vapor diffusion” (solvent EtOH, anti-solvent n-Pentane) it was “Gel”; in “Liquid vapor diffusion” (solvent H2O, anti-solvent ACN) it was “Gel”; in the series “Liquid vapor diffusion” (solvent H2O, anti-solvent IPA), “Gel”. The Result result is given as “Gel” in “Liquid vapor diffusion” (solvent THF, anti-solvent MTBE); “Amorphous” in “Liquid vapor diffusion” (solvent THF, anti-solvent n-Heptane); “Compound A Form A” in the series “Slow cooling” (ACN); “Compound A Form A” in the series “Slow cooling” (Acetone); “Compound A Form A” in the series “Slow cooling” (IPA); “Compound A Form A” in the series “Slow cooling” (MEK). In addition, in series [1], the “Form change after heating” value was “very slight differences were observed before and after heating”.
